Our source for the inhibition and Activity values is ChEMBL document CHEMBL3745684, “Synthesis of a norcantharidin-tethered guanosine: Protein phosphatase-1 inhibitors that change alternative splicing” (Bioorg Med Chem Lett, 2016).

Activity calls are given as the source filed them. The calls are words filed in the database; no cut-off is given here.

Holding throughout (format): cell-based
In assay [1] the test system is HEK293. Put plainly: Inhibition of protein phosphatase-1 in human HEK293 cells assessed as exon 7 inclusion in the survival of motor neuron 2 gene at 1 to 100 uM after 14 to 16 hrs by RT-PCR analysis.
Assay [2] relates to HEK293. Description: Inhibition of protein phosphatase-1 in human HEK293 cells assessed as increase in exon 7 inclusion in the survival of motor neuron 2 gene at 10 to 100 uM after 14 to 16 hrs by RT-PCR analysis.
Assay [3] concerns HEK293. Description: Inhibition of protein phosphatase-1 in human HEK293 cells assessed as increase in exon 7 inclusion in the survival of motor neuron 2 gene after 14 to 16 hrs by RT-PCR analysis.

As for `CNCCc1ccc(CCO)cc1`, the inhibition result in the assay with HEK293 [1] was “inactive”. Turning to `CO[C@@H]1[C@H](OP(=O)(O)OCCc2ccc(CCN(C)C(=O)[C@H]3[C@@H](C(=O)O)[C@@H]4CC[C@H]3O4)cc2)[C@@H](CO)O[C@H]1n1cnc2c(=O)[nH]c(N)nc21` (mixture of isomers), the figures for the Activity in the assay on HEK293 [2] and in the assay on HEK293 [3] were 25% and “Dose-dependent effect”, respectively.
